# Measured values published in patent US20260035387A1 (BIOGEN MA INC., priority 2022, published 2026).
# Test system: mutant Huntington (HTT) protein
# Assay: HTT Mutant HTRF iPSC assay (mHTT protein lowering)
# Format: cell-based
# Details: human iPSC derived from a HTT patient with a poly-Q49 mutation
row,Compound,IC50 [nM]
1,"Cc1cn2cc(NC(=O)c3nc4ccc(N5CCNCC5)nc4s3)cc(F)c2n1 [Compound 102, N-(8-fluoro-2-methylimidazo[1,2-a]pyridin-6-yl)-5-(piperazin-1-yl)thiazolo[5,4-b]pyridine-2-carboxamide]",< 100
2,"Cc1cn2cc(NC(=O)c3nc4ccc(NC5CC(C)(C)NC(C)(C)C5)nc4s3)cc(F)c2n1 [Compound 103, N-(8-fluoro-2-methylimidazo[1,2-a]pyridin-6-yl)-5-((2,2,6,6-tetramethylpiperidin-4-yl)amino)thiazolo[5,4-b]pyridine-2-carboxamide]",< 100
3,"Cc1cn2cc(NC(=O)c3nc4ccc(N5C[C@H]6CN(C)C[C@H]65)nc4s3)cc(F)c2n1 [Compound 104, N-(8-fluoro-2-methylimidazo[1,2-a]pyridin-6-yl)-5-((1R,5S)-3-methyl-3,6-diazabicyclo[3.2.0]heptan-6-yl)thiazolo[5,4-b]pyridine-2-carboxamide]",< 100
4,"Cc1cn2cc(NC(=O)c3nc4ccc(N5C[C@@H]6CCN[C@@H]6C5)nc4s3)cc(F)c2n1 [Compound 105, N-(8-fluoro-2-methylimidazo[1,2-a]pyridin-6-yl)-5-((3aS,6aS)-hexahydropyrrolo[3,4-b]pyrrol-5(1H)-yl)thiazolo[5,4-b]pyridine-2-carboxamide]",< 100
5,"Cc1cn2cc(NC(=O)c3nc4ccc(N5C[C@@H]6CN(C)C[C@@H]65)nc4s3)cc(F)c2n1 [Compound 106, N-(8-fluoro-2-methylimidazo[1,2-a]pyridin-6-yl)-5-((1S,5R)-3-methyl-3,6-diazabicyclo[3.2.0]heptan-6-yl)thiazolo[5,4-b]pyridine-2-carboxamide]",100 to 1000
6,"CN[C@H]1CCN(c2ccc3nc(C(=O)Nc4cc(F)c5nc(C)cn5c4)sc3n2)C1 [Compound 107, (S)-N-(8-fluoro-2-methylimidazo[1,2-a]pyridin-6-yl)-5-(3-(methylamino)pyrrolidin-1-yl)thiazolo[5,4-b]pyridine-2-carboxamide]",< 100
7,"Cc1cn2cc(NC(=O)c3nc4ccc(N5C[C@H]6CCN[C@H]6C5)nc4s3)cc(F)c2n1 [Compound 108, N-(8-fluoro-2-methylimidazo[1,2-a]pyridin-6-yl)-5-((3aR,6aR)-hexahydropyrrolo[3,4-b]pyrrol-5(1H)-yl)thiazolo[5,4-b]pyridine-2-carboxamide]",< 100
8,"COc1nc(NC(=O)c2nc3ccc(N4CCC5(CCCN5C)C4)nc3s2)cn2cc(C)nc12 (centres unmarked) [Compound 109, N-(8-methoxy-2-methylimidazo[1,2-a]pyrazin-6-yl)-5-(1-methyl-1,7-diazaspiro[4.4]nonan-7-yl)thiazolo[5,4-b]pyridine-2-carboxamide]",< 100
9,"Cc1cn2cc(NC(=O)c3nc4ccc(N5C[C@@H]6CCN[C@@H]6C5)nc4s3)cc(F)c2n1 [Compound 110, N-(8-fluoro-2-methylimidazo[1,2-a]pyridin-6-yl)-5-((3aS,6aS)-hexahydropyrrolo[3,4-b]pyrrol-5(1H)-yl)thiazolo[5,4-b]pyridine-2-carboxamide]",< 100
10,"Cc1cn2cc(NC(=O)c3nc4ccc(N5CCC6(CCN6)C5)nc4s3)cc(F)c2n1 (centres unmarked) [Compound 112, N-(8-fluoro-2-methylimidazo[1,2-a]pyridin-6-yl)-5-(1,6-diazaspiro[3.4]octan-6-yl)thiazolo[5,4-b]pyridine-2-carboxamide]",< 100
11,"Cc1cn2cc(NC(=O)c3nc4ccc(N(C)C5CC(C)(C)NC(C)(C)C5)nc4s3)cc(F)c2n1 [Compound 113, N-(8-fluoro-2-methylimidazo[1,2-a]pyridin-6-yl)-5-(methyl(2,2,6,6-tetramethylpiperidin-4-yl)amino)thiazolo[5,4-b]pyridine-2-carboxamide]",< 100
12,"COc1c(NC(=O)c2nc3ccc(N4CCC5(CN(C)C5)C4)nc3s2)cn2cc(C)nc2c1F [Compound 114, N-(8-fluoro-7-methoxy-2-methylimidazo[1,2-a]pyridin-6-yl)-5-(2-methyl-2,6-diazaspiro[3.4]octan-6-yl)thiazolo[5,4-b]pyridine-2-carboxamide]",< 100
13,"COc1cn2nc(C)cc2cc1NC(=O)c1nc2ccc(N3CCC4(CCCN4C)C3)nc2s1 (centres unmarked) [Compound 116, N-(6-methoxy-2-methylpyrazolo[1,5-a]pyridin-5-yl)-5-(1-methyl-1,7-diazaspiro[4.4]nonan-7-yl)thiazolo[5,4-b]pyridine-2-carboxamide]",100 to 1000
14,"COc1nc(NC(=O)c2nc3ccc(N4CC[C@@H](N(C)C)C4)nc3s2)cn2cc(C)nc12 [Compound 117, (R)-5-(3-(dimethylamino)pyrrolidin-1-yl)-N-(8-methoxy-2-methylimidazo[1,2-a]pyrazin-6-yl)thiazolo[5,4-b]pyridine-2-carboxamide]",< 100
15,"CCN1CCN(c2ccc3nc(C(=O)Nc4cc5cn(C)nc5cc4OC)sc3n2)CC1 [Compound 118, 5-(4-ethylpiperazin-1-yl)-N-(6-methoxy-2-methyl-2H-indazol-5-yl)thiazolo[5,4-b]pyridine-2-carboxamide]",100 to 1000
16,"CCN1CCN(c2ccc3nc(C(=O)Nc4cn5cc(C)nc5c(C)n4)sc3n2)CC1 [Compound 119, N-(2,8-dimethylimidazo[1,2-a]pyrazin-6-yl)-5-(4-ethylpiperazin-1-yl)thiazolo[5,4-b]pyridine-2-carboxamide]",100 to 1000

row,Compound,IC50 [nM]
1,"COc1cc2nn(C)cc2cc1NC(=O)c1nc2ccc(N3CC[C@@H](N4CCC4)C3)nc2s1 [Compound 120, (R)-5-(3-(azetidin-1-yl)pyrrolidin-1-yl)-N-(6-methoxy-2-methyl-2H-indazol-5-yl)thiazolo[5,4-b]pyridine-2-carboxamide]",100 to 1000
2,"COc1cc2nn(C)cc2cc1NC(=O)c1nc2ccc(N3CC[C@H](N4CCC4)C3)nc2s1 [Compound 121, (S)-5-(3-(azetidin-1-yl)pyrrolidin-1-yl)-N-(6-methoxy-2-methyl-2H-indazol-5-yl)thiazolo[5,4-b]pyridine-2-carboxamide]",100 to 1000
3,"Cc1cn2cc(NC(=O)c3nc4ccc(N5CCC(N6CCC6)C5)nc4s3)nc(C)c2n1 (centres unmarked) [Compound 122, 5-(3-(azetidin-1-yl)pyrrolidin-1-yl)-N-(2,8-dimethylimidazo[1,2-a]pyrazin-6-yl)thiazolo[5,4-b]pyridine-2-carboxamide]",1000 to 9000
4,"Cc1cn2cc(NC(=O)c3nc4ccc(C5CCNCC5)nc4s3)cc(F)c2n1 [Compound 129, N-(8-fluoro-2-methylimidazo[1,2-a]pyridin-6-yl)-5-(piperidin-4-yl)thiazolo[5,4-b]pyridine-2-carboxamide]",< 100
5,"Cc1cn2cc(NC(=O)c3nc4ccc(C5=CC6CCC(C5)N6)nc4s3)cc(F)c2n1 (centres unmarked) [Compound 130, 5-(8-azabicyclo[3.2.1]oct-2-en-3-yl)-N-(8-fluoro-2-methylimidazo[1,2-a]pyridin-6-yl)thiazolo[5,4-b]pyridine-2-carboxamide]",< 100
6,"Cc1cn2cc(NC(=O)c3nc4ccc(C5CCN(C)C5)nc4s3)cc(F)c2n1 (centres unmarked) [Compound 131, N-(8-fluoro-2-methylimidazo[1,2-a]pyridin-6-yl)-5-(1-methylpyrrolidin-3-yl)thiazolo[5,4-b]pyridine-2-carboxamide]",< 100
7,"Cc1cn2cc(NC(=O)c3nc4ccc(C5=CC(C)(C)NC(C)(C)C5)nc4s3)cc(F)c2n1 [Compound 132, N-(8-fluoro-2-methylimidazo[1,2-a]pyridin-6-yl)-5-(2,2,6,6-tetramethyl-1,2,3,6-tetrahydropyridin-4-yl)thiazolo[5,4-b]pyridine-2-carboxamide]",< 100
8,"Cc1cn2cc(NC(=O)c3nc4ccc(C5=CCCN(C)C5)nc4s3)cc(F)c2n1 [Compound 133, N-(8-fluoro-2-methylimidazo[1,2-a]pyridin-6-yl)-5-(1-methyl-1,2,5,6-tetrahydropyridin-3-yl)thiazolo[5,4-b]pyridine-2-carboxamide]",< 100
9,"Cc1cn2cc(NC(=O)c3nc4ccc(C5CCCN(C)C5)nc4s3)cc(F)c2n1 (centres unmarked) [Compound 134, N-(8-fluoro-2-methylimidazo[1,2-a]pyridin-6-yl)-5-(1-methylpiperidin-3-yl)thiazolo[5,4-b]pyridine-2-carboxamide]",< 100
10,"COc1cc2nn(C)cc2cc1NC(=O)c1nc2ccc(C3CCN(C)CC3)nc2s1 [Compound 135, N-(6-methoxy-2-methyl-2H-indazol-5-yl)-5-(1-methylpiperidin-4-yl)thiazolo[5,4-b]pyridine-2-carboxamide]",100 to 1000
11,"Cc1cn2cc(NC(=O)c3nc4ccc(C5CCN(C)CC5)nc4s3)nc(C)c2n1 [Compound 136, N-(2,8-dimethylimidazo[1,2-a]pyrazin-6-yl)-5-(1-methylpiperidin-4-yl)thiazolo[5,4-b]pyridine-2-carboxamide]",1000 to 9000
12,"COc1cc2nn(C)cc2cc1NC(=O)c1nc2ccc(C3CCN(C)C3)nc2s1 (centres unmarked) [Compound 137, N-(6-methoxy-2-methyl-2H-indazol-5-yl)-5-(1-methylpyrrolidin-3-yl)thiazolo[5,4-b]pyridine-2-carboxamide]",< 100
13,"Cc1cn2cc(NC(=O)c3nc4ccc(C5CCN(C)C5)nc4s3)nc(C)c2n1 (centres unmarked) [Compound 138, N-(2,8-dimethylimidazo[1,2-a]pyrazin-6-yl)-5-(1-methylpyrrolidin-3-yl)thiazolo[5,4-b]pyridine-2-carboxamide]",100 to 1000
14,"Cc1cn2cc(NC(=O)c3nc4ccc(C5C[C@@H](C)N[C@@H](C)C5)nc4s3)cc(F)c2n1 (stereo partly drawn) [Compound 139, 5-[(2S,6R)-2,6-dimethyl-4-piperidyl]-N-(8-fluoro-2-methyl-imidazo[1,2-a]pyridin-6-yl)thiazolo[5,4-b]pyridine-2-carboxamide]",< 100
15,"Cc1cn2cc(NC(=O)c3nc4ccc(C5=C[C@@H](C)N[C@@H](C)C5)nc4s3)cc(F)c2n1 [Compound 140, 5-[(2S,6R)-2,6-dimethyl-1,2,3,6-tetrahydropyridin-4-yl]-N-(8-fluoro-2-methyl-imidazo[1,2-a]pyridin-6-yl)thiazolo[5,4-b]pyridine-2-carboxamide]",< 100
16,"Cc1cn2cc(NC(=O)c3cc4ncc(C5CC6CCC(C5)N6)nc4s3)cc(F)c2n1 (centres unmarked) [Compound 142, 3-(8-azabicyclo[3.2.1]octan-3-yl)-N-(8-fluoro-2-methylimidazo[1,2-a]pyridin-6-yl)thieno[2,3-b]pyrazine-6-carboxamide]",100 to 1000
